Where two headings read alike, the source gives them in different places.
Assays:
[1] = tested on: adult Musca domestica; experiment: Musca domestica test (MUSCDO); format: in vivo; conditions: 100 ppm, after 2 days
Procedure: (§1) Musca domestica Test (MUSCDO) [table] To produce a suitable active compound formulation, 10 mg of active compound are mixed with 0.5 ml of dimethyl sulfoxide, and the concentrate is diluted with water to the desired concentration. Vessels containing a sponge treated with the active compound formulation of the desired concentration are populated with adult Musca domestica. After 2 days, the kill in % is determined 100% means that all flies have been killed; 0% means that no flies have been killed.

[2] = tested on: Boophilus microplus; experiment: Boophilus microplus test (BOOPMI injection); format: in vivo; conditions: 20 μg/animal, after 7 days
Procedure: Boophilus microplus Test (BOOPMI Injection) [table] To produce a suitable active compound formulation, 10 mg of active compound are mixed with 0.5 ml of solvent and the concentrate is diluted with solvent to the desired concentration. The active compound solution is injected into the abdomen (Boophilus microplus), and the animals are transferred into dishes and stored in a climate-controlled room. After 7 days, the efficacy in % is determined. The activity is assessed by laying of fertile eggs. 100% means that none of the ticks has laid any fertile eggs.

[3] = tested on: greenhouse red spider mite (Tetranychus urticae); experiment: Tetranychus urticae spray test, OP-resistant (TETRUR); format: in vivo; conditions: for efficacy: 100 g/ha, spray, after 6 days
Procedure: (§2) To produce a suitable active compound formulation, 1 part by weight of active compound is mixed with the stated amounts of solvent and emulsifier, and the concentrate is diluted with emulsifier-containing water to the desired concentration.
Discs of bean leaves (Phaseolus vulgaris) infested by all stages of the greenhouse red spider mite (Tetranychus urticae) are sprayed with an active compound formulation of the desired concentration.
After 6 days, the efficacy in % is determined 100% means that all the spider mites have been killed; 0% means that none of the spider mites have been killed. […]

[4] = log P by HPLC on reversed-phase column (C18), EEC directive 79/831 Annex V.A8; format: physicochemical; conditions: for chromatographic logP: reversed-phase HPLC column (C18)
Procedure: a) The determination of the W by LC-MS in the acidic range is effected at pH 2.7, acetonitrile (contains 0.1% formic acid) and water as eluents; linear gradient from 10% acetonitrile to 95% acetonitrile, instrument: Agilent 1100 LC-System, Agilent MSD System, HTS PAL. The log P values reported in the tables and Preparation Examples above were determined in accordance with EEC directive 79/831 Annex V.A8 by HPLC (High Performance Liquid Chromatography) using a reversed-phase column (C18). Temperature 43° C. The calibration is effected with unbranched alkan-2-ones (having 3 to 16 carbon atoms), for which the log P values are known.

[5] = tested on: caterpillars of the armyworm (Spodoptera frugiperda); experiment: Spodoptera frugiperda spray test (SPODFR); format: in vivo; conditions: for efficacy: 100 g/ha, spray, after 7 days
Procedure: Spodoptera frugiperda—Spray Test (SPODFR)
as §2
Leaf discs of maize (Zea mays) are sprayed with an active compound formulation of the desired concentration and, after drying, populated with caterpillars of the armyworm (Spodoptera frugiperda).
After 7 days, the efficacy in % is determined. 100% means that all the caterpillars have been killed; 0% means that no caterpillars have been killed.
(§3) To produce a suitable preparation of active compound, 1 part by weight of active compound is mixed with the stated amounts of solvent and emulsifier, and the concentrate is diluted with emulsifier-containing water to the desired concentration.
Leaf discs of maize (Zea mays) are sprayed with an active compound preparation of the desired concentration and, after drying, populated with caterpillars of the armyworm (Spodoptera frugiperda).
After the stated period of time, the effect in % is determined. 100% means that all the caterpillars have been killed; 0% means that no caterpillars have been killed.

[6] = tested on: Lucilia cuprina larvae; experiment: Lucilia cuprina test (LUCICU); format: in vivo; conditions: 100 ppm, after 2 days
Procedure: as §1, with “Lucilia cuprina” for “Musca domestica”, “(LUCICU)” for “(MUSCDO)”, “horse meat” for “a sponge”, “about 20 Lucilia cuprina larvae.” for “adult Musca domestica.”, “the larvae” for “flies”, “none of the larvae” for “no flies”

[7] = tested on: larvae of the mustard beetle (Phaedon cochleariae); experiment: Phaedon cochleariae spray test (PHAECO); format: in vivo; conditions: for pest or weed control at 100 g/ha / efficacy: spray, after 7 days, 100 g/ha; for pest or weed control at 100 g/ha: read-out: efficacy
Procedure: Phaedon cochleariae—Spray Test (PHAECO)
as §3
Discs of Chinese cabbage leaves (Brassica pekinensis) are sprayed with an active compound formulation of the desired concentration and, after drying, populated with larvae of the mustard beetle (Phaedon cochleariae).
After 7 days, the efficacy in % is determined. 100% means that all the beetle larvae have been killed; 0% means that no beetle larvae have been killed.
After the stated period of time, the effect in % is determined 100% means that all the beetle larvae have been killed; 0% means that no beetle larvae have been killed.

[8] = tested on: Ctenocephalides felis; experiment: Ctenocephalides felis; oral (CTECFE); format: in vivo; conditions: 100 ppm, oral in cattle blood, after 2 days
Procedure: Ctenocephalides felis; Oral (CTECFE)
To produce a suitable active compound formulation, 10 mg of active compound are mixed with 0.5 ml of dimethyl sulphoxide. A portion of the concentrate is diluted with citrated cattle blood, and the desired concentration is prepared.
About 20 unfed adult fleas (Ctenocephalides felis) are placed into a chamber which is closed at the top and bottom with gauze. A metal cylinder whose bottom end is closed with parafilm is placed onto the chamber. The cylinder contains the blood/active compound preparation, which can be imbibed by the fleas through the parafilm membrane.
After 2 days, the kill in % is determined 100% means that all fleas have been killed; 0% means that none of the fleas have been killed.

[9] = HPLC, acidic range pH 2.7, 43° C.
[10] = HPLC, acidic range pH 2.7, 43° C., read-out: log p

chromatographic logP ([4]; pH 2.7, final compounds of the synthesis examples, read-out: log P (HPLC-MS))	SMILES	efficacy (kill) [1] [%]	efficacy (laying of fertile eggs) [2] [%]	efficacy [3] [%]	efficacy [5] [%]	efficacy (kill) [6] [%]	pest or weed control at 100 g/ha ([7]; Phaedon cochleariae, 168 h) [%]	efficacy (kill) [8] [%]	log p [4, 9]	efficacy [7] [%]	Emax at 4 g/ha ([3]; Tetranychus urticae, 144 h, TETRUR, 4 g of ai/ha, 6 d, read-out: % Efficacy dat) [%]	chromatographic logP [4, 10]	Emax at 4 g/ha ([5]; Spodoptera frugiperda, 168 h, SPODFR, 4 g of ai/ha, 7 d, read-out: % Efficacy dat) [%]	percent efficacy (larval mortality) at 0.8 g/ha ([7]; Phaedon cochleariae, 168 h, PHAECO, 0.8 g of ai/ha, 7 d, read-out: % Efficacy dat) [%]	Emax at 100 g/ha ([3]; Tetranychus urticae, 144 h, TETRUR, 100 g of ai/ha, 6 d, read-out: % Efficacy dat) [%]
3.52	CCn1c(C(=O)NC(c2cccc(C(F)(F)F)c2)C(F)(F)F)cc2cc(C(=O)NC3CC3)c(C)nc21 (centres unmarked) [Compound 1, N^5-Cyclopropyl-1-ethyl-6-methyl-N^2-{2,2,2-trifluoro-1-[3-(trifluoromethyl)phenyl]ethyl}-1H-pyrrolo[2,3-b]pyridine-2,5-dicarboxamide]	100	100	90	100	100	100	100							
	CCn1c(C(=O)NC(c2cccc(C(F)(F)F)c2)C(F)(F)F)cc2cc(C(=O)NC3CC3)c(Cl)nc21 (centres unmarked) [Compound 12]	100	100	100	100	100		100	3.70	100					
	CCn1c(C(=O)NC(c2ccc(F)c(Cl)c2)C(F)(F)F)cc2cc(C(=O)NC3CC3)c(Cl)nc21 (centres unmarked) [Compound 16]	100	100	90		100		100	3.61	100					
	Cn1c(C(=O)NC(c2cccc(C(F)(F)F)c2)C(F)(F)F)cc2cc(C(=O)NC3CC3)c(Cl)nc21 (centres unmarked) [Compound 22]	100	100	100	100	100	100	95			90	3.4	100	100	
	CCn1c(C(=O)NC(c2cc(Cl)c(F)c(Cl)c2)C(F)(F)F)cc2cc(C(=O)NC3(C#N)CC3)c(Cl)nc21 (centres unmarked) [Compound 27]	100	100	100	100	100		100	4.11	100					
	CCn1c(C(=O)NC(c2ccc(F)c(C(F)(F)F)c2)C(F)(F)F)cc2cc(C(=O)NC3CC3)c(Cl)nc21 (centres unmarked) [Compound 29]	100	100	90	100	100		95		100					
	CCn1c(C(=O)NC(c2ccc(Cl)c(Cl)c2)C(F)(F)F)cc2cc(C(=O)NC3(C#N)CC3)c(Cl)nc21 (centres unmarked) [Compound 32]	100	100	100	100	100		100	3.94	100					
	CCn1c(C(=O)NC(c2cccc(C(F)(F)F)c2)C(F)(F)F)cc2cc(C(=O)NCC(F)(F)F)c(Cl)nc21 (centres unmarked) [Compound 41]	100	100		100	100		100	4.08	100					
	CCn1c(C(=O)NC(c2cccc(C(F)(F)F)c2)C(F)(F)F)cc2cc(C(=O)NCC#N)c(Cl)nc21 (centres unmarked) [Compound 42]	100	100	90		100	100	100				3.5			90
	CCn1c(C(=O)NC(c2ccc(F)c(C(F)(F)F)c2)C(F)(F)F)cc2cc(C(=O)NC3(C#N)CC3)c(Cl)nc21 (centres unmarked) [Compound 53]	100	100	100	100	100		100	3.77	100					
